# Laboratory results as given in patent US20210221774A1, “TREATMENT OF POST-TRAUMATIC SYNDROME DISORDER” (Aché Laboratórios Farmacêuticos S.A, priority 2017, published 2021).
# System: c-fos expression in key brain regions involved in stress response
# Test: Single Prolonged Stress (SPS) model, count of c-fos positive neurons in brain regions
# Format: in vivo
# Conditions: mice, IA1-29 30 mg/kg p.o. given before SPS, locus ceruleus, amygdala, hypothalamus, bed nuclei stria terminalis (FIG. 1)
# Experimental: The quinazolinone of the invention was named IA1-29 and was tested in an in vivo model that mimics the activation that occurs in the brain after a prolonged stress stimulus.
# The effects of the administration of IA1-29 at 30 mg/kg p.o. in brain activation were assessed in mice subjected to the Single Prolonged Stress (SPS) model. The SPS protocol is a well established model of PTSD that combines multiple stressors (physical restraint, forced swim, predator scent and ether anesthesia (Borghans & Homberg, 2015; Yamamoto et al., 2009)). The activation of specific brain regions was determined by counting the number of neurons expressing the c-fos protein, an immediate early gene product that can be used as a marker of cell activation in individual neurons. […] The count of c-fos positive neurons in some of these regions can be visualized in FIG. 1. The experiment comprised three different groups (n=10 per group): mice not subjected to the SPS protocol (Sham), mice subjected to the SPS model (SPS) and animals submitted to the SPS protocol but pre-treated with IA1-29 at 30 mg/kg (IA1-29+SPS). The brain regions exemplified in FIG. 1 are locus ceruleus (FIG. 1A), amygdala (FIG. 1B), hypothalamus (FIG. 1C) and bed nuclei stria terminalis (FIG. 1D). […]
smiles,measurement,value
"COc1ccccc1N1CCN(CCn2cnc3ccccc3c2=O)CC1 [IA1-29, 3-(2-(4-(2-methoxyphenyl)piperazine-1-yl)ethyl) quinazoline-4(3H)-one]",SPS-induced c-fos expression in key brain regions involved in stress response (count of c-fos positive neurons),suppressed
